Results as given in the kinase profiling compilation of Christmann-Franck et al. (2016).

Columns and labels:
Assay in all cases: radiometric filter-binding kinase assay, Kinase HotSpot
Details in all cases: compound 0.5 µM; ATP 10 µM
ACVR1 (human) = ACVR1 (human) (UniProt Q04771)
AKT3 (human) = AKT3 (human) (UniProt Q9Y243)
BMX (human) = BMX (human) (UniProt P51813)
CAMK4 (human) = CAMK4 (human) (UniProt Q16566)
CDK5 CDK5R1 p25 (human) = CDK5 CDK5R1 p25 (human) (UniProt Q00535+Q15078)
CLK4 (human) = CLK4 (human) (UniProt Q9HAZ1)
Sequence of CLK4 (human) (Q9HAZ1 whole entry, looked up): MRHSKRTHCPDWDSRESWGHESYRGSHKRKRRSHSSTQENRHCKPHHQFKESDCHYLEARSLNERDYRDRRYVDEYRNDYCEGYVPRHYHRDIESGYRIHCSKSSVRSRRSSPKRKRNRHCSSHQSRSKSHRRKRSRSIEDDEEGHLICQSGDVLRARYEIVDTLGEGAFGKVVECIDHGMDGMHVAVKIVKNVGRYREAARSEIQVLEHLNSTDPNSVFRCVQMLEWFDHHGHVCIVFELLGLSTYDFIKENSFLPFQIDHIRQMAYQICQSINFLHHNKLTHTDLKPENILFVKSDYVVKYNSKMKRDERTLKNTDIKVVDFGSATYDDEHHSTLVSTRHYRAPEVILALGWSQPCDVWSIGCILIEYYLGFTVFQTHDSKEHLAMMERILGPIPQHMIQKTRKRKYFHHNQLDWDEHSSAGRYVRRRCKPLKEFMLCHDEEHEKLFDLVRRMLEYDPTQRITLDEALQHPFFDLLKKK

ERBB2 (human) = ERBB2 (human) (UniProt P04626)
ERBB4 (human) = ERBB4 (human) (UniProt Q15303)
FGFR2 (human) = FGFR2 (human) (UniProt P21802)
FGFR4 (human) = FGFR4 (human) (UniProt P22455)
JAK3 JH1 JH2 (human) = JAK3 JH1 JH2 (human) (UniProt P52333)
LTK (human) = LTK (human) (UniProt P29376)
Sequence of LTK (human) (P29376 whole entry, looked up): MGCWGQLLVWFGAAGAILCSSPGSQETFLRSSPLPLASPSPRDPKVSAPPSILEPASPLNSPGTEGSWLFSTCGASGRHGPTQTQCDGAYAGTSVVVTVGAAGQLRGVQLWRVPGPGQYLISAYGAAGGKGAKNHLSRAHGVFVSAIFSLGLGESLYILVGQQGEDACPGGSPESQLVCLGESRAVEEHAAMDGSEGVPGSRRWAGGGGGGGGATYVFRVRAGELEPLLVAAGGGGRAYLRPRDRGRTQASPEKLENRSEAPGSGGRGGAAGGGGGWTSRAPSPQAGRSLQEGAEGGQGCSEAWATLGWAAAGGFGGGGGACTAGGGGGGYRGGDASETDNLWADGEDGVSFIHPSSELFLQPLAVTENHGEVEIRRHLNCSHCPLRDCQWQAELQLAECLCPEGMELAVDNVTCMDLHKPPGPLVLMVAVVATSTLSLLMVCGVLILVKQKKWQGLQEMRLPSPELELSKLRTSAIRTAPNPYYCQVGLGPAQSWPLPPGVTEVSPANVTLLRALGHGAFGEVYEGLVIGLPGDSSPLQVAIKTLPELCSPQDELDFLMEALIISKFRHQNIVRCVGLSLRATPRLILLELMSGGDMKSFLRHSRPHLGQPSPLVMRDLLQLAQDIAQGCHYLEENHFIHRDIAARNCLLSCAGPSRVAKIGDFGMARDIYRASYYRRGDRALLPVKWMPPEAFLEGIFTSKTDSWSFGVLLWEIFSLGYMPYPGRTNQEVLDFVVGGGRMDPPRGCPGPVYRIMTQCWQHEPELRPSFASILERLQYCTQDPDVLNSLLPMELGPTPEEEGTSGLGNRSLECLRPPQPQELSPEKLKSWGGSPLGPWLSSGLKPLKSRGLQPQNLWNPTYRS

MAP3K10 (human) = MAP3K10 (human) (UniProt Q02779)
MAP4K4 (human) = MAP4K4 (human) (UniProt O95819)
MAPK12 (human) = MAPK12 (human) (UniProt P53778)
MAPK14 (human) = MAPK14 (human) (UniProt Q16539)
Sequence of MAPK14 (human) (Q16539 whole entry, looked up): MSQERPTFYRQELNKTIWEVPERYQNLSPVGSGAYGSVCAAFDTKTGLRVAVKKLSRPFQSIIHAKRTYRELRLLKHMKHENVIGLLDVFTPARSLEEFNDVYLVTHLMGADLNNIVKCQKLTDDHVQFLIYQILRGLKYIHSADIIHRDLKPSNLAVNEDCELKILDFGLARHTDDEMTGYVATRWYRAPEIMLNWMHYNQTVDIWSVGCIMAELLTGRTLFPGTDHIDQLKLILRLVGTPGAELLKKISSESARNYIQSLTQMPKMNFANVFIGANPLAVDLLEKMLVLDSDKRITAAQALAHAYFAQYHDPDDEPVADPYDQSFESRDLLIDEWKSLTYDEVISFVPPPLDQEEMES

MAPK3 (human) = MAPK3 (human) (UniProt P27361)
MAPKAPK5 (human) = MAPKAPK5 (human) (UniProt Q8IW41)
MINK1 (human) = MINK1 (human) (UniProt Q8N4C8)
MKNK2 (human) = MKNK2 (human) (UniProt Q9HBH9)
Sequence of MKNK2 (human) (Q9HBH9 whole entry, looked up): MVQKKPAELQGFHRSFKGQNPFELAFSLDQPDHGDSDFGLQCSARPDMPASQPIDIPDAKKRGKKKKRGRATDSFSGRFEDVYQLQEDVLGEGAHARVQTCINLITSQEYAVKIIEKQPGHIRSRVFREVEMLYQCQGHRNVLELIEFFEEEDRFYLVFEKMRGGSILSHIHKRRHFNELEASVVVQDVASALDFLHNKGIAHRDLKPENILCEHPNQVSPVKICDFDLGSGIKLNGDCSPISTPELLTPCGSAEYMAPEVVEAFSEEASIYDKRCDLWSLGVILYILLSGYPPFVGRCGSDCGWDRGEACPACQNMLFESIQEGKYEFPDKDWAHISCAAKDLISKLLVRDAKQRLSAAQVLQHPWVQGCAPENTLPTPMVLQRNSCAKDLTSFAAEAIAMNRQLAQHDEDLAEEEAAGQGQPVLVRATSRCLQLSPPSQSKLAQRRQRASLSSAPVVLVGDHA

NEK2 (human) = NEK2 (human) (UniProt P51955)
PASK (human) = PASK (human) (UniProt Q96RG2)
PLK1 (human) = PLK1 (human) (UniProt P53350)
PRKCD (human) = PRKCD (human) (UniProt Q05655)
Sequence of PRKCD (human) (Q05655 whole entry, looked up): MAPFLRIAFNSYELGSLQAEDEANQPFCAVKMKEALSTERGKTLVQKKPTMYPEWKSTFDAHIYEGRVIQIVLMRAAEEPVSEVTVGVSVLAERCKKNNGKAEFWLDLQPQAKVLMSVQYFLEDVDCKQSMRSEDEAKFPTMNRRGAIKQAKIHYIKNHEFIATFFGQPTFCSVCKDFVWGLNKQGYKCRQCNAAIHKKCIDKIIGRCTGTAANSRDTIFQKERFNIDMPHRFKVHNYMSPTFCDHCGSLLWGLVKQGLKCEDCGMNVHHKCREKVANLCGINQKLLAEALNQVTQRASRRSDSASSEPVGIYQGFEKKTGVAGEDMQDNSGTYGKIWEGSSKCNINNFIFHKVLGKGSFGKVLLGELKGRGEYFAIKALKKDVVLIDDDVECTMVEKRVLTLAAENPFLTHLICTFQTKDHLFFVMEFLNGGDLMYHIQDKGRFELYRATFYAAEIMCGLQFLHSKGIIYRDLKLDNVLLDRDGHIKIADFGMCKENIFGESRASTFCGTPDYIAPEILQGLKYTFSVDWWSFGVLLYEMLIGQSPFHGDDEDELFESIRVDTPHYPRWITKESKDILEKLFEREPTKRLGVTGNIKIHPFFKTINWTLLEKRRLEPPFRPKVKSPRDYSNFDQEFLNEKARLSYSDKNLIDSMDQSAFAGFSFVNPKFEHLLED

PTK2 (human) = PTK2 (human) (UniProt Q05397)
PTK6 (human) = PTK6 (human) (UniProt Q13882)
RAF1 (human) = RAF1 (human) (UniProt P04049)
ROCK1 (human) = ROCK1 (human) (UniProt Q13464)
RPS6KA2 KD1 KD2 (human) = RPS6KA2 KD1 KD2 (human) (UniProt Q15349)
RPS6KB2 (human) = RPS6KB2 (human) (UniProt Q9UBS0)
SGK2 (human) = SGK2 (human) (UniProt Q9HBY8)
SRMS (human) = SRMS (human) (UniProt Q9H3Y6)
STK10 (human) = STK10 (human) (UniProt O94804)
STK11 (human) = STK11 (human) (UniProt Q15831)
Sequence of STK11 (human) (Q15831 whole entry, looked up): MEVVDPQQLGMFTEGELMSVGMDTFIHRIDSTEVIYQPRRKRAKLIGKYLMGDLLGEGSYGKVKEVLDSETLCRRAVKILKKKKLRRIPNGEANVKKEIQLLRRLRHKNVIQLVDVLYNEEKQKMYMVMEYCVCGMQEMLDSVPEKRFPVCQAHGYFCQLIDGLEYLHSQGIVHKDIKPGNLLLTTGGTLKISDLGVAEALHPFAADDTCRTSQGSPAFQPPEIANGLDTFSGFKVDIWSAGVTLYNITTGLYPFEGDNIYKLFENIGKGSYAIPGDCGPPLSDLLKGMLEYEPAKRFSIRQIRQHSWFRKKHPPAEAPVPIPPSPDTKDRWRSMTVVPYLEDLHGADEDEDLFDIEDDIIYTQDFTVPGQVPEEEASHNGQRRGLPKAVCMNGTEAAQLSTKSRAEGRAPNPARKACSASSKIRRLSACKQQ

STK16 (human) = STK16 (human) (UniProt O75716)
TAOK1 (human) = TAOK1 (human) (UniProt Q7L7X3)
TNK2 (human) = TNK2 (human) (UniProt Q07912)
TYRO3 (human) = TYRO3 (human) (UniProt Q06418)
Sequence of TYRO3 (human) (Q06418 whole entry, looked up): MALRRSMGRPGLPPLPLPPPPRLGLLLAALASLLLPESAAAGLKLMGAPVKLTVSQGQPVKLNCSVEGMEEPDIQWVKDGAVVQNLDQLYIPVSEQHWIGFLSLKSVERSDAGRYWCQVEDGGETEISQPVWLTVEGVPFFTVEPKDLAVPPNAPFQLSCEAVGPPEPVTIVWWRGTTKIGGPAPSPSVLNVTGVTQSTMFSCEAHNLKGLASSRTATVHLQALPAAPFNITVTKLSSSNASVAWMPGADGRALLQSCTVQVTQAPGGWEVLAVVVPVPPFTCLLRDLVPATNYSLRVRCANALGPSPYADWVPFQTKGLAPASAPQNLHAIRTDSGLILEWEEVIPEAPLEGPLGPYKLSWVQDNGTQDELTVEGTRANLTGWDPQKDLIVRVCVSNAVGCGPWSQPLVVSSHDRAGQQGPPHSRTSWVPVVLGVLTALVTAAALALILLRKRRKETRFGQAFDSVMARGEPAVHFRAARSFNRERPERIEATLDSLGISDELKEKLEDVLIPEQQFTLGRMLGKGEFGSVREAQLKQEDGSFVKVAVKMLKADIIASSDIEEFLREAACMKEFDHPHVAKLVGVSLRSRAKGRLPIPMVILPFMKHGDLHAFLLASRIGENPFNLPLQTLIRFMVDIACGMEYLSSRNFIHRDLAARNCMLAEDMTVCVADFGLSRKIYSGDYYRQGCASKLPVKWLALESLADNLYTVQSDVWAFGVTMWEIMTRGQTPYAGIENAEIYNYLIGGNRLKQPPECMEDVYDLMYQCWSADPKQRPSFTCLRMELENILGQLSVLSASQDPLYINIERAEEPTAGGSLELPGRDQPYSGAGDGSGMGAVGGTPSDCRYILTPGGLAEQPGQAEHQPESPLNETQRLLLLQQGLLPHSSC

CSF1R (human) = CSF1R (human) (UniProt P07333)
CSNK1E (human) = CSNK1E (human) (UniProt P49674)
FGFR3 (human) = FGFR3 (human) (UniProt P22607)
MET (human) = MET (human) (UniProt P08581)

Sequence of BMX (human) (P51813 whole entry, looked up): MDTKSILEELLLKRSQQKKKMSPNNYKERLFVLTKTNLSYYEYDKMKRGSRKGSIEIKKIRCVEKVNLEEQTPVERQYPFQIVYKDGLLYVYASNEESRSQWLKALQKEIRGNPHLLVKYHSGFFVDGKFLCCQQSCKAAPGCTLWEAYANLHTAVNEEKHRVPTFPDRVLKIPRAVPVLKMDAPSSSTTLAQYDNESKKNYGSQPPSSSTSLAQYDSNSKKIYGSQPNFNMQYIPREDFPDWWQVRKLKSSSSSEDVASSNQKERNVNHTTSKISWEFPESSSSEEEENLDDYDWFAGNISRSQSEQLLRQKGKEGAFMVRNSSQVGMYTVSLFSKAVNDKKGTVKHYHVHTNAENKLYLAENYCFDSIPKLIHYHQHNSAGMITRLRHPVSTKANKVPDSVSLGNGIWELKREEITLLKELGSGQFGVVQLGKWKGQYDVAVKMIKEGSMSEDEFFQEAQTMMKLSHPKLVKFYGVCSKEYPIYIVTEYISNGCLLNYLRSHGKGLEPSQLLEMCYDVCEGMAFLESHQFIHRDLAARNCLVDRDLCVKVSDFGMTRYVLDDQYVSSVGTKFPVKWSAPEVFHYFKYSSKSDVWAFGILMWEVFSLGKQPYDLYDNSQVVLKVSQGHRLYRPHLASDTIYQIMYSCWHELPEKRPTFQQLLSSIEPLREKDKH

COc1cc2c(Nc3ccc(Br)cc3F)ncnc2cc1OCC1CCN(C)CC1
residual activity (ACVR1 (human)): 208% | residual activity (AKT3 (human)): 100% | residual activity (BMX (human)): 88.4% | residual activity (CAMK4 (human)): 101% | residual activity (CDK5 CDK5R1 p25 (human)): 97.8% | residual activity (CLK4 (human)): 84.3% | residual activity (ERBB2 (human)): 72.2% | residual activity (ERBB4 (human)): 45.6% | residual activity (FGFR2 (human)): 38.4% | residual activity (FGFR4 (human)): 90% | residual activity (JAK3 JH1 JH2 (human)): 96% | residual activity (LTK (human)): 64.6% | residual activity (MAP3K10 (human)): 102% | residual activity (MAP4K4 (human)): 79.8% | residual activity (MAPK12 (human)): 92.6% | residual activity (MAPK14 (human)): 91.8% | residual activity (MAPK3 (human)): 102% | residual activity (MAPKAPK5 (human)): 94.7% | residual activity (MINK1 (human)): 81.5% | residual activity (MKNK2 (human)): 86.9% | residual activity (NEK2 (human)): 103% | residual activity (PASK (human)): 102% | residual activity (PLK1 (human)): 98.5% | residual activity (PRKCD (human)): 103% | residual activity (PTK2 (human)): 100% | residual activity (PTK6 (human)): 7.28% | residual activity (RAF1 (human)): 81.1% | residual activity (ROCK1 (human)): 99.4% | residual activity (RPS6KA2 KD1 KD2 (human)): 85.9% | residual activity (RPS6KB2 (human)): 101% | residual activity (SGK2 (human)): 122% | residual activity (SRMS (human)): 98.8% | residual activity (STK10 (human)): 21.3% | residual activity (STK11 (human)): 105% | residual activity (STK16 (human)): 101% | residual activity (TAOK1 (human)): 103% | residual activity (TNK2 (human)): 85.4% | residual activity (TYRO3 (human)): 33%

O=S(=O)(NCCNC/C=C/c1ccc(Br)cc1)c1cccc2cnccc12
residual activity (ACVR1 (human)): 96.4% | residual activity (AKT3 (human)): 69% | residual activity (BMX (human)): 102% | residual activity (CAMK4 (human)): 95.2% | residual activity (CDK5 CDK5R1 p25 (human)): 113% | residual activity (CLK4 (human)): 119% | residual activity (CSF1R (human)): 97.7% | residual activity (CSNK1E (human)): 107% | residual activity (ERBB2 (human)): 119% | residual activity (ERBB4 (human)): 94.2% | residual activity (FGFR2 (human)): 95.1% | residual activity (FGFR3 (human)): 91.3% | residual activity (FGFR4 (human)): 85.3% | residual activity (JAK3 JH1 JH2 (human)): 122% | residual activity (LTK (human)): 94.7% | residual activity (MAP3K10 (human)): 85.5% | residual activity (MAP4K4 (human)): 43.8% | residual activity (MAPK14 (human)): 105% | residual activity (MAPK3 (human)): 84.8% | residual activity (MAPKAPK5 (human)): 90.2% | residual activity (MINK1 (human)): 91.1% | residual activity (MKNK2 (human)): 78.7% | residual activity (NEK2 (human)): 97.1% | residual activity (PASK (human)): 94.5% | residual activity (PLK1 (human)): 98.7% | residual activity (PRKCD (human)): 38.1% | residual activity (PTK2 (human)): 64.1% | residual activity (PTK6 (human)): 94.2% | residual activity (RAF1 (human)): 96.4% | residual activity (ROCK1 (human)): 37.8% | residual activity (RPS6KA2 KD1 KD2 (human)): 79.2% | residual activity (RPS6KB2 (human)): 71.9% | residual activity (SGK2 (human)): 84.2% | residual activity (SRMS (human)): 97.8% | residual activity (STK10 (human)): 89.2% | residual activity (STK11 (human)): 102% | residual activity (STK16 (human)): 94.4% | residual activity (TAOK1 (human)): 101% | residual activity (TNK2 (human)): 88.3% | residual activity (TYRO3 (human)): 93.9%

CCCCc1c(-c2ccc(O)cc2)[nH]c2nccnc12
residual activity (ACVR1 (human)): 83.8% | residual activity (AKT3 (human)): 95.8% | residual activity (BMX (human)): 86.8% | residual activity (CAMK4 (human)): 93.9% | residual activity (CLK4 (human)): 64.3% | residual activity (CSF1R (human)): 38.4% | residual activity (CSNK1E (human)): 102% | residual activity (ERBB2 (human)): 97.7% | residual activity (ERBB4 (human)): 102% | residual activity (FGFR2 (human)): 94.5% | residual activity (FGFR3 (human)): 80% | residual activity (FGFR4 (human)): 91.8% | residual activity (JAK3 JH1 JH2 (human)): 92.2% | residual activity (LTK (human)): 84.1% | residual activity (MAP3K10 (human)): 74.3% | residual activity (MAP4K4 (human)): 60.9% | residual activity (MAPK14 (human)): 102% | residual activity (MAPK3 (human)): 101% | residual activity (MAPKAPK5 (human)): 93.1% | residual activity (MET (human)): 82.7% | residual activity (MINK1 (human)): 82% | residual activity (MKNK2 (human)): 107% | residual activity (NEK2 (human)): 106% | residual activity (PASK (human)): 99.5% | residual activity (PLK1 (human)): 96.6% | residual activity (PRKCD (human)): 102% | residual activity (PTK2 (human)): 83.1% | residual activity (PTK6 (human)): 29.7% | residual activity (RAF1 (human)): 106% | residual activity (ROCK1 (human)): 98.6% | residual activity (RPS6KA2 KD1 KD2 (human)): 87.7% | residual activity (RPS6KB2 (human)): 102% | residual activity (SGK2 (human)): 99.4% | residual activity (SRMS (human)): 95.4% | residual activity (STK10 (human)): 82.8% | residual activity (STK11 (human)): 33.5% | residual activity (STK16 (human)): 55.4% | residual activity (TAOK1 (human)): 70.9% | residual activity (TNK2 (human)): 49.9% | residual activity (TYRO3 (human)): 99.6%

COc1cc2c(N3CCN(C(=O)Nc4ccc(OC(C)C)cc4)CC3)ncnc2cc1OCCCN1CCCCC1
residual activity (ACVR1 (human)): 145% | residual activity (AKT3 (human)): 106% | residual activity (BMX (human)): 109% | residual activity (CAMK4 (human)): 99.3% | residual activity (CDK5 CDK5R1 p25 (human)): 104% | residual activity (CLK4 (human)): 88.7% | residual activity (CSNK1E (human)): 99.1% | residual activity (ERBB2 (human)): 104% | residual activity (ERBB4 (human)): 97.3% | residual activity (FGFR2 (human)): 99.8% | residual activity (FGFR3 (human)): 93.2% | residual activity (FGFR4 (human)): 87.8% | residual activity (JAK3 JH1 JH2 (human)): 99.8% | residual activity (LTK (human)): 101% | residual activity (MAP3K10 (human)): 101% | residual activity (MAP4K4 (human)): 96.6% | residual activity (MAPK12 (human)): 96.4% | residual activity (MAPK14 (human)): 94.1% | residual activity (MAPK3 (human)): 106% | residual activity (MAPKAPK5 (human)): 91.9% | residual activity (MET (human)): 92.5% | residual activity (MINK1 (human)): 99% | residual activity (MKNK2 (human)): 99% | residual activity (NEK2 (human)): 101% | residual activity (PASK (human)): 105% | residual activity (PLK1 (human)): 101% | residual activity (PRKCD (human)): 101% | residual activity (PTK2 (human)): 101% | residual activity (PTK6 (human)): 92.9% | residual activity (RAF1 (human)): 96.7% | residual activity (ROCK1 (human)): 102% | residual activity (RPS6KA2 KD1 KD2 (human)): 98.6% | residual activity (RPS6KB2 (human)): 102% | residual activity (SGK2 (human)): 105% | residual activity (SRMS (human)): 95.8% | residual activity (STK10 (human)): 95% | residual activity (STK11 (human)): 104% | residual activity (STK16 (human)): 103% | residual activity (TAOK1 (human)): 103% | residual activity (TNK2 (human)): 92.7% | residual activity (TYRO3 (human)): 101%

CN[C@@H]1C[C@H]2O[C@@](C)([C@@H]1OC)n1c3ccccc3c3c4c(c5c6ccccc6n2c5c31)C(=O)NC4
residual activity (AKT3 (human)): 2.97% | residual activity (CDK5 CDK5R1 p25 (human)): 2.78% | residual activity (CLK4 (human)): 6.62% | residual activity (LTK (human)): 0.543% | residual activity (MET (human)): 32.7%
